These results are taken from patent US6927221B2, “Tricyclic fused heterocyclic compound, process for preparing it and medicament comprising it” (Eisai Co., Ltd., priority 1999, dated 2005).

Where a name gives a salt, the structure may show the parent alone. Read-outs that look alike come from different tables or passages of the source.

The IC50 is the midpoint of a concentration-inhibition curve.

Test [1] has as its target T1, human CRFR1 (Homo sapiens, UniProt P34998).
T1 construct: The full length gene of CRFR^1 was obtained by a PCT method using human brain (QuickClone™ Clontech) as cDNA library; expressed in transfected cells; host or cells: Hek 283 cell (so in the source)
T1 sequence (P34998 24-415): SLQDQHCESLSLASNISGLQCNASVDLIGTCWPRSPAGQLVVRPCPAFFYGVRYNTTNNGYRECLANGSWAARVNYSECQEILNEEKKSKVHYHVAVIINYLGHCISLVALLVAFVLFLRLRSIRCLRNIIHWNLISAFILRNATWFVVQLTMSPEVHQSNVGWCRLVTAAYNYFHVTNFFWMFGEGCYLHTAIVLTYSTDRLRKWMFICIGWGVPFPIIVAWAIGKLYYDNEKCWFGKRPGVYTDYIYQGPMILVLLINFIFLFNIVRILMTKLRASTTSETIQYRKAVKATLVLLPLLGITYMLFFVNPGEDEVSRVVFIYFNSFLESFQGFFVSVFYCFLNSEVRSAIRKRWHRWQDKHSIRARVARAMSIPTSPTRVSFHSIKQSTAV
Put plainly: CRFR binding experiment (125I-sauvagine, SPA). As to conditions: membrane fraction of cell expressing human CRFR1, 40 pM 125I-sauvagine, room temperature, two hours; read-out: CRF1 receptor binding ability IC50. As for the experimental part: • (1) Preparation of CRFR expressing cell: As an experiment material for the CRFR binding experiment, a membrane fraction of a cell which expressed highly human CRFR1. CRFR expressing cell was prepared as follows. The full length gene of CRFR^1 was obtained by a PCT method using human brain (QuickClone™ Clontech) as cDNA library. The resulting DNA fragment was inserted into a cloning vector to confirm the base sequence. A cDNA having the correct base sequence was ligated to an expression vector (pcDNA3.1™, Invitrogen). A gene was inserted into […] cell and grown in a cell culturing solution containing G418 (1 mg/ml) to obtain a resistance cell, into which a CRFR^1 expression vector was cloned by a limitation diluting method. A clone having the high binding ability of membrane and sauvagine per unit protein was finally selected from cloned cells by a binding experiment shown by the method shown below, which was used for an experiment. • (2) Preparation of a membrane fraction: G418 resistant cells into which a gene for CRFR^1 was introduced were collected, and cell rupture was performed by an ultrasound generator with a sonicate buffer (D-PBS-10 mM MgCl2, 2 mM EGTA). A suspension after ultrasound rupture was centrifuged (46,000×g, 10 minutes), the sediment thereof was further resuspended with a sonicate buffer, and the same procedures were related. Finally, the sediment was suspended in a binding buffer (D-PBS-10 mM MgCl2, 2 mM EGTA, 1.5% BSA, 0.15 mM bacitracin, 1× protease inhibitor cocktail (COMPLETE™, Boehringer), to adjust the protein concentration at 1.6 mg/ml, which was used as a membrane fraction. • (3) Binding experiment: Binding experiment with sauvagine was performed using a 96-well plate and SP™ (Amersham pharmacia) An experiment was according to the specification of SPA beads. […] of a membrane fraction protein, 0.5 mg of beads and 40 pM ^125I-sauvaging (Amersham pharmacia) were allowed to stand at room temperature for two hours in the presence a test compound, centrifuged (1,000×g, 5 minutes), and then the radioactivity of each well was measured with TopCount™ (Packard). • (4) Calculation of the binding ability: The radioactivity as the non-specific binding when 1,000-fold excessive amount of non-radioactive sauvagine was added was substacted from each value, the radioactivity where no test material is added is regarded as 100% (control), and each value is shown by % (% of control). The concentration showing 50% in % (% of control) was obtained from a graph where the concentration test material is plotted on an abscissa axis and % (% of control) is plotted on a coordinate axis and IC50 value was calculated (Table 1)

The test system of test [2] is AtT-20 cell. Briefly: Experiment for measuring adenylate cyclase activity using AtT-20 cell (CRF-induced cAMP). The test is classed as cell-based, mouse. As to conditions: 1 mM IBMX, intracellular cAMP by ELISA, read-out: adenylate cyclase ability IC50. From the text: Experiment for Measuring Adenyrate Cyclase the Activity Using AtT-20 Cell
• (1) Test procedures: AtT-20 cell is a cell strain derived from mouse pytuitari gland tumor, it is known that the intracellular adenyrate cyclase system is activated in response to corticotrophin release hormone (CRF), to produce cyclic AMP (cAMP), releasing adrenocortical hormone (ACTH) (Biochem. Piophys. Res. Com. 106. 1364-1371, 1982). In this experiment, the cell 1×10^5) suspended in D-MEM medium (0.1% FPS), seeded on a 96-well plate, a phosphodiesterase inhibitor (IBMX, Calbiochem) was added to the final concentration of 1 mM, which was cultured at 37° C. for 30 minutes. A diluted test compound solution and CRF (30 nM) were added, which was further cultured at 37° C. for 10 minutes, cells were collected by centrifugation (500×g, 5 minutes), cells were lysed with a lysis buffer (Amersham Pharmacia), and an amount of intracellular cAMP produced was quantitated using the ELISA method. For ELISA, cAMP EIA system (BIOTRAK™ Amersham Pharmacia) was used. • (2) Calculation of adenyrate cyclase activity inhibitory ability: Treatment of the resulting data was carried out as follows. An amount of cAMP produced by a cell to which 30 nM CRF was added is regarded as 100% (control) and a value of each sample is expressed as % (% of control). The concentration showing 50% in % (% of control) was obtained from a graph where the concentration of a test material is plotted on an abscissa axis and % (% of control) is plotted on a coordinate and IC50 value was calculated (Table 2).

As to `COCCN1c2c(c(C)nc3c(-c4c(C)cc(C)cc4C)c(C)nn23)CC1C` (stereo not shown) [Example 44, 3-Mesityl-8-(2-methoxyethyl)-2,5,7-trimethyl-7,5-dihydro-6H-pyrazolo[1,5-a]pyrrolo[3,2-e]pyrimidine hydrochloride], the IC50 in test [1] was found to be 400 nM. Regarding `CCC(CC)N1c2c(c(C)nc3c(-c4c(C)cc(C)cc4C)c(C)nn23)CC1C` (stereo not shown) [Example 13, 8-(1-Ethylpropyl)-mesityl-2,5,7-trimethyl-7,8-dihydro-6H-pyrazolo[1,5-a]pyrrolo[3,2-e]pyrimidine], the half-inhibitory concentration (IC50) was 1500 nM in test [2] (30 nM CRF) and 2500 nM in test [1]. On to `CCC(CC)N1CCc2c(C)nc3c(-c4c(C)cc(C)cc4C)c(C)nn3c21` [Example 1, 8-(1-Ethylpropyl)-3-mesityl-2,5-dimethyl-7,8-dihydro-6H-pyrazolo[1,5-a]pyrrolo[3,2-e]pyrimidine hydrochloride], for which the IC50 in test [2] (Mus musculus, AtT20, 30 nM CRF) was found to be 900 nM; in test [1], 100 nM. For `CCC(CC)N1CCCc2c(C)nc3c(-c4c(C)cc(C)cc4C)c(C)nn3c21` [Example 12, 9-(1-Ethylpropyl)-3-mesityl-2,5-dimethyl-6,7,8,9-tetrahydropyrazolo[1,5-a]pyrido[3,2-e]pyrimidine], the IC50 in test [1] is 1500 nM. The same measure, in the same setting: for `CCC(CC)N1CCc2c(C)nc3c(-c4ccc(Cl)cc4Cl)c(C)nn3c21` [Example 33, 3-(2,4-Dichlorophenyl)-8-(1 ethylpropyl)-2,5-dimethyl-7,8-dihydro-6H-pyrazolo[1,5-a]pyrrolo[3,2-e]pyrimidine hydrochloride] the value was 1000 nM; for `CCCCN1CCc2c(C)nc3c(-c4c(C)cc(C)cc4C)c(C)nn3c21` [Example 2, 8-Butyl-3-mesityl-2,5-dimethyl-7,8-dihydro-pyrazolo[1,5-a]pyrrolo[3,2-e]pyrimidine hydrochloride], 500 nM.

For `CCc1nn2c3c(c(C)nc2c1-c1c(C)cc(C)cc1C)CCN3C(CC)CC` [Example 23, 2-Ethyl-8-(1-ethylpropyl)-3-mesityl-5-methyl-7,8-dihydro-6H-pyrazolo[1,5-a]pyrrolo[3,2-e]pyrimidine], in test [1], the IC50 worked out at 1500 nM. The same measure, in the same setting: for `Cc1cc(C)c(-c2c(C)nn3c4c(c(C)nc23)CCN4C2CCCCCC2)c(C)c1` [Example 45, 8-Cycloheptyl-3-mesityl-2,5-dimethyl-7,8-dihydro)-6H-pyrazolo[1,5-a]pyrrolo[3,2-e]pyrimidine hydrochloride] the value was 1500 nM. Still for that read-out and setting: for `CCCC(CCC)N1CCc2c(C)nc3c(-c4c(C)cc(C)cc4C)c(C)nn3c21` [Example 6, 3-Mesityl-2,5-dimethyl-8-(1-propylbutyl)-7,8-dihydro-6H-pyrazolo[1,5-a]pyrrolo[3,2]-pyrimidine hydrochloride] the value was 1000 nM.

Take `CCC(CC)n1ccc2c(C)nc3c(-c4c(C)cc(C)cc4C)c(C)nn3c21` [Example 67, 8-(1-Ethylpropyl)-3-mesityl-2,5-dimethyl-8H-pyrazolo[1,5-a]pyrrolo[3,2-e]pyrimidine]: the IC50 in test [2] (Mus musculus, AtT20, 30 nM CRF) was 2000 nM; in test [1], 200 nM. As for `CCCC(CCC)N1CCc2c(C)nc3c(-c4cnc(N(C)C)cc4C)c(C)nn3c21` [Example 3, N-5-[2,5-Dimethyl-8-(1-propylbutyl)-7,8-dihydro-6H-pyrazolo[1,5-a]pyrrolo[3,2-e]pyrimidin-3-yl]-4-methyl-2-pyridyl-N,N-dimethylamine hydrochloride], the IC50 in test [1] was 600 nM. For `Cc1cc(C)c(-c2c(C)nn3c4c(c(C)nc23)CCN4CC2CC2)c(C)c1` [Example 38, 8-(Cyclopropylmethyl)-3-mesityl-2,5-dimethyl-7,8-dihydro-6H-pyrazolo[1,5-a]pyrrolo[3,2-e]pyrimidine hydrochloride], the half-maximal inhibitory concentration (IC50) in test [1] is 3000 nM. The same measure, in the same setting: for `CCCC(=O)N1CCc2c(C)nc3c(-c4c(C)cc(C)cc4C)c(C)nn3c21` [Example 74, 1-(3-Mesityl-2,5-dimethyl-7,8-dihydro-6H-pyrazolo[1,5-a]pyrrolo[3,2-e]pyrimidin-8-yl)-1-butanone] the value was 1400 nM.
